Results published in patent US20200031811A1, “SUBSTITUTED MONO- AND POLYAZANAPHTHALENE DERIVATIVES AND THEIR USE” (Basilea Pharmaceutica International AG, priority 2015, published 2020).

Tests used:
[1] = test system: human pancreatic cancer cell line MiaPaCa2 (ATCC CRL-1420); assay: Cell growth assay (CellTiterGlo, 72 hours); assay type: cell-based; settings: for IC50: MIA PaCa-2, MiaPaCa2 cells, 72 hours, read-out: IC50 MiaPaCa
Outline: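 MiaPaCa2 cells (10^3/well) seeded in supplemented DMEM overnight, then exposed in quadruplicate to compound at 100 down to 0.1 μM for 72 h at 37° C. Growth read by CellTiterGlo luminescence, medium-only background subtracted, normalised to untreated cells; IC50 = concentration reducing growth to 50%.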

MNK1 = target: T1, MNK1 (Homo sapiens, UniProt Q9BUB5); assay: MNK inhibition assay (Z-Lyte kinase assay, Ser/Thr 7 peptide); assay type: biochemical; settings: recombinant GST-MNK1, 3 hours at 31° C.
T1 construct: purchased Life Technologies or Carna Biosciences PV6023 or 02-145; host or cells: baculovirus infected insect cells
T1 sequence (Q9BUB5 whole entry): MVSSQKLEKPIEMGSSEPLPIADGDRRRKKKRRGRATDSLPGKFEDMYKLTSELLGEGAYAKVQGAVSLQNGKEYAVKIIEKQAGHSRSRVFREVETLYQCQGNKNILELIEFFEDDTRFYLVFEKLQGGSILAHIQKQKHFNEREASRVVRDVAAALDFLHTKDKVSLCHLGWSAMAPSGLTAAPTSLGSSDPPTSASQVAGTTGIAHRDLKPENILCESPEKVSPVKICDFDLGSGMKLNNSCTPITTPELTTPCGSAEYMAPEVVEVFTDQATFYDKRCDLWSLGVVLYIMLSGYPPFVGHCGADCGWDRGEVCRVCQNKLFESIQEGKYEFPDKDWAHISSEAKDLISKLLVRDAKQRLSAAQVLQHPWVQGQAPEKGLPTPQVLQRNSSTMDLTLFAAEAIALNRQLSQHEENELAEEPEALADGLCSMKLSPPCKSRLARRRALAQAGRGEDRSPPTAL
Outline: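 Recombinant GST-MNK1 from baculovirus-infected insect cells, Z-Lyte Ser/Thr 7 peptide, enzyme set for ~30% phosphorylation in buffer-only wells; 3 hours at 31° C. Compounds at 50–10000 nM (potent ones down to 0.5 nM), at least duplicate. IC50 from % substrate phosphorylation versus buffer-only wells, fluorescence read-out.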

[2] = test system: B16 melanoma pulmonary metastatic lesions; settings: in vivo; cited from earlier work
[3] = test system: HCT116 colon carcinoma xenograft; settings: nude mice; cited from earlier work

SMILES	IC50 [1] [µM]	IC50 (MNK1) [µM]	inhibition at 100 µM ([1]; MIA PaCa-2, at 100 μM, read-out: Inhibition of MiaPaCa growth at indicated concentration) [%]	outgrowth of B16 melanoma pulmonary metastatic lesions [2]	growth of a HCT116 colon carcinoma xenograft model [3]
Nc1ncc(-c2ccc(Cl)cc2)c2cc(CN3CCC(N)CC3)cc(Cl)c12 [Example 284]	4.23	0.16			
Nc1ncc(-c2ccc(F)c(F)c2)c2cc(CN3CCC(N)CC3)cc(Cl)c12 [Example 285]	6.77	0.15			
Nc1ncc(-c2ccco2)c2cc(CN3CCC(N)CC3)cc(Cl)c12 [Example 286]	1.64	0.027			
Nc1ncc(-c2cccs2)c2cc(CN3CCC(N)CC3)cc(Cl)c12 [Example 287]	4.74	0.142			
Nc1ncc(-c2ccco2)c2cc(CN3CCC(N)CC3)ccc12 [Example 289]	10.3	0.418			
Nc1ncc(-c2cccs2)c2cc(CN3CCC(N)CC3)ccc12 [Example 290]	5.21	0.183			
N[C@@H]1CCC[C@@H](Nc2ccc3cncc(-c4cc5ccccc5o4)c3c2)C1 [Example 291]	4.75	0.638			
NC1CCCN(Cc2ccc3cncc(-c4cc5ccccc5o4)c3c2)C1 (centres unmarked) [Example 293]	14.5	2.08			
c1ccc2oc(-c3cncc4ccc(CN5CCCCC5)cc34)cc2c1 [Example 294]	35.3	1.52			
COc1cc(CN2CCC(N)CC2)cc2c(-c3ccc(F)c(F)c3)cnc(N)c12 [Example 296]	5.34	0.453			
COc1cc(CN2CCC(N)CC2)cc2c(-c3cccs3)cnc(N)c12 [Example 298]	3.58	0.282			
NC1CCN(Cc2ccc3cncc(-c4cc5ccccc5o4)c3n2)CC1 [Example 300, 1-[[8-(Benzofuran-2-yl)-1,6-naphthyridin-2-yl]methyl]piperidin-4-amine]	8.36	0.089			
c1ccc2oc(-c3cncc4ccc(CN5CCNCC5)nc34)cc2c1 [Example 302]	18	0.142			
O=C(c1ccc2cncc(-c3cc4ccccc4o3)c2n1)N1CCNCC1 [Example 305]	28	1.3			
N#Cc1cc(CN2CCC(N)CC2)cc2c(-c3cc4ccccc4o3)cncc12 [Example 306, 6-[(4-Amino-1-piperidyl)methyl]-4-(benzofuran-2-yl)isoquinoline-8-carbonitrile]	9.13	0.179			
N[C@H]1CC[C@H](Oc2ccc3cncc(-c4ccccc4)c3c2)CC1 [Example 309]	4.43	0.061			
N[C@H]1CC[C@H](Oc2cc(Cl)c3cncc(-c4ccccc4)c3c2)CC1 [Example 311]	5.76	0.105			
Nc1ncc(-c2ccccc2)c2cc(N[C@H]3CC[C@H](N)CC3)cc(Cl)c12 [Example 312, Trans-N6-(4-aminocyclohexyl)-8-chloro-4-phenyl-isoquinoline-1,6-diamine]	1.3	0.171			
Nc1ncc(-c2cc3ccccc3o2)c2cc(N[C@H]3CC[C@H](N)CC3)cc(Cl)c12 [Example 313]	2.06	0.282			
COc1cc(O[C@H]2CC[C@H](N)CC2)cc2c(-c3ccccc3)cncc12 [Example 316]	5.57	0.055			
Nc1ncc(-c2ccccc2)c2cc(N[C@H]3CC[C@H](N)CC3)ccc12 [Example 317, trans-N6-(4-aminocyclohexyl)-4-phenyl-isoquinoline-1,6-diamine]	4.58	0.312			
Nc1ncc(-c2cc3ccccc3o2)c2cc(O[C@H]3CC[C@H](N)CC3)cc(Cl)c12 [Example 318, trans-6-(4-Aminocyclohexoxy)-4-(benzofuran-2-yl)-8-chloro-isoquinolin-1-amine]	3.8	0.296			
Nc1ncc(-c2ccccc2)c2cc(O[C@H]3CC[C@H](N)CC3)cc(Cl)c12 [Example 319]	2.85	0.038			
COc1cc(O[C@H]2CC[C@H](N)CC2)cc2c(-c3ccccc3)cnc(N)c12 [Example 321]	1.31	0.175			
Nc1ncc(-c2ccccc2)c2cc(O[C@H]3CC[C@H](N)CC3)ccc12 [Example 322]	2.17	0.153			
CC(=O)C1=C(O)C=C2Oc3c(C(N)=O)c(O)cc(O)c3[C@]2(C)C1=O [cercosporamidc]				reduceing the outgrowth	inhibiting the growth

More lines, in order of falling IC50 (MNK1), values ahead:

IC50 [1] [µM]	IC50 (MNK1) [µM]	SMILES	inhibition at 100 µM ([1]; MIA PaCa-2, at 100 μM, read-out: Inhibition of MiaPaCa growth at indicated concentration) [%]	outgrowth of B16 melanoma pulmonary metastatic lesions [2]	growth of a HCT116 colon carcinoma xenograft model [3]
51.7	1.72	c1ccc2oc(-c3cncc4ccc(CN5CCCCC5)nc34)cc2c1 [Example 301]			
4.74	0.302	COc1cc(O[C@H]2CC[C@H](N)CC2)cc2c(-c3cc4ccccc4o3)cncc12 [Example 314, Trans-4-[[4-(Benzofuran-2-yl)-8-methoxy-6-isoquinolyl]oxy]cyclohexanamine]			
1.68	0.3	COc1cc(CN2CCC(N)CC2)cc2c(-c3ccc(Cl)cc3)cnc(N)c12 [Example 295, 6-[(4-Amino-1-piperidyl)methyl]-4-(4-chlorophenyl)-8-methoxy-isoquinolin-1-amine]			
1.21	0.29	COc1cc(CN2CCC(N)CC2)cc2c(-c3ccco3)cnc(N)c12 [Example 297]			
47.7	0.256	N#Cc1cc(CN2CCC(N)CC2)cc2c(-c3ccccc3)cncc12 [Example 307]			
4.61	0.241	COc1cc(CN2CCC(N)CC2)cc2c(-c3ccc(Cl)cc3)cncc12 [Example 288]			
	0.237	NC1CCN(Cc2ccc3cncc(-c4ccccc4)c3n2)CC1 [Example 299, 1-[(8-Phenyl-1,6-naphthyridin-2-yl)methyl]piperidin-4-amine]	85		
3.2	0.211	COc1cc(O[C@H]2CC[C@H](N)CC2)cc2c(-c3cc4ccccc4o3)cnc(N)c12 [Example 323, trans-6-(4-Aminocyclohexoxy)-4-(benzofuran-2-yl)-8-methoxy-isoquinolin-1-amine]			
5.09	0.161	N[C@@H]1CCC[C@H](Nc2ccc3cncc(-c4cc5ccccc5o4)c3c2)C1 [Example 292]			
2.37	0.135	N[C@H]1CC[C@H](Oc2cc(Cl)c3cncc(-c4cc5ccccc5o4)c3c2)CC1 [Example 310]			
2.55	0.087	COc1cc(N[C@H]2CC[C@H](N)CC2)cc2c(-c3ccccc3)cncc12 [Example 315]			
9.52	0.031	N[C@H]1CC[C@H](Nc2ccc3cncc(-c4ccccc4)c3n2)CC1 [Example 303, trans-N4-(8-phenyl-1,6-naphthyridin-2-yl)cyclohexane-1,4-diamine]			
2.34	0.028	N[C@H]1CC[C@H](Nc2cc(Cl)c3cncc(-c4ccccc4)c3c2)CC1 [Example 308]			
1.96	0.01	N[C@H]1CC[C@H](Nc2ccc3cncc(-c4cc5ccccc5o4)c3n2)CC1 [Example 304, trans-N4-[8-(benzofuran-2-yl)-1,6-naphthyridin-2-yl]cyclohexane-1,4-diamine]			
